Data on three compounds can be found in publication PMC6535779, “A Specific, Glycomimetic Langerin Ligand for Human Langerhans Cell Targeting” (ACS Central Science, 2019).

The test has as its target T1, Langerin CRD (Homo sapiens, UniProt Q9UJ71).
T1 construct: made in house
The test can be described thus: 15N HSQC NMR titration, KD determination. It is filed as binding. How it is done:
Receptor Expression and Purification
General remarks. Codon-optimized genes for the expression of Langerin and DC-SIGN in E. coli were purchased from GenScript and Life Technologies, respectively. All growth media or chemicals used for receptor expression and purification were purchased from Carl Roth if not stated otherwise. […]
Langerin and DC-SIGN carbohydrate recognition domain. Expression and purification were conducted as previously published14. Briefly, the monomeric 15N-labeled Langerin and DC-SIGN carbohydrate recognition domains (CRDs) were expressed insolubly in E. coli BL21* (DE3) (Invitrogen). Following enzymatic cell lysis, inclusion bodies were harvested and subsequently solubilized. The sample was centrifuged and the Langerin and DC-SIGN CRDs were refolded overnight via rapid dilution. Next, the sample was dialyzed overnight, centrifuged and purified via StrepTactin affinity chromatography (Iba). After an additional dialysis step overnight, the sample was centrifuged and the buffer was exchanged to 25 mM HEPES with 150 mM NaCl at pH 7.0 using 7 kDa size-exclusion desalting columns (Thermo Scientific) for 19F R2-filtered and 15N HSQC NMR experiments. The concentration of Langerin and DC -SIGN CRDs was determined via UV spectroscopy (A280, 0.1% = 3.19 and A280, 0.1% = 2.98). Purity and monodispersity of Langerin and DC - SIGN CRD samples were analyzed via SDS PAGE and DLS. […]
KI determination. KI values were determined as previously published for Langerin3. Briefly, titration experiments were conducted at a concentration of 0.1 mM of reporter ligand 24 at five competitor concentrations [I]T. Samples were prepared via serial dilution. For the acids GlcNS, GlcNAc-6-OS and GlcNS-6-OS the pH values were monitored and adjusted to 7.8 if necessary.
General remarks. 15N HSQC NMR experiments were conducted on an Ascend 700 MHz spectrometer (Bruker)16. Spectra were processed in NMRPipe17. Data analysis was performed using CCPN Analysis, MatLab and OriginPro15, 18-19. Experiments with the Langerin CRD were performed at a receptor concentration of 100 μM in 25 mM HEPES with 10% D 2O, 150 mM NaCl and 5 mM CaCl2 at pH 7.8 and 25° C. DSS-d6 served as an internal reference at a concentration of 100 μM. Spectra were referenced via the internal spectrometer reference. Spectra were acquired with 128 increments and 32 scans per increments for 150 μl samples in 3 mm sample tubes. The relaxation delay d1 was set to 1.4 s and the acquisition time tacq was set to 100 ms. The W5 Watergate pulse sequence was used for solvent suppression20. The used resonance assignment for the Langerin CRD has been published […]
KD determination. KD values were determined in titration experiments at six ligand concentrations [L]T. Samples were prepared via serial dilution. Chemical shift perturbations CSPs for Langerin CRD resonances in the fast or fast-to-intermediate exchange regime observed upon titration with ligand were calculated via Equation 121.
A standard deviation σ of 0.02 ppm was previously determined for the measurement of chemical shifts in 15N HSQC NMR experiments with the Langerin CRD1. Accordingly, only assigned resonances that […]
for the determination of KD values via Equation 2 in a global two parameter fit21. Standard errors were derived directly from the fitting procedures.
Δv0.5 larger than 10 Hz upon titration in either the 1H or the 15N dimension were not considered for the determination of KD values. CSPmax represents the CSP value observed upon saturation of the binding […]

Where [1] appears, read: CSPs of fast-exchanging resonances, read-out: KD, Langerin (KD,fast).
The mark [2] stands for this setting: from integrals V of resonances in slow exchange, read-out: KD, Langerin (KD,slow).

Each structure is given as a SMILES string. Where two headings read alike, the source gives them in different places.

T1 sequence (Q9UJ71 202-320 limits assumed): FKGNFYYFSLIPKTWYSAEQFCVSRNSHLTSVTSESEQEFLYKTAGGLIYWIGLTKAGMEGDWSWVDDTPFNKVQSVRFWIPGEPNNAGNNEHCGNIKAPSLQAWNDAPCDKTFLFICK

As to `CC(=O)NCCO[C@@H]1O[C@H](CO)[C@@H](O)[C@H](O)[C@H]1NS(=O)(=O)c1ccc(C)cc1` [compound 16], the Kd came to 230 ± 70 µM under setting [1] and 300 ± 100 µM under setting [2].

With `CC(=O)NCCO[C@H]1O[C@H](CO)[C@@H](O)[C@H](O)[C@@H]1O` [compound 21], the Kd under setting [1] is 12000 ± 1000 µM.

`Cc1ccc(S(=O)(=O)N[C@H]2C(O)O[C@H](CO)[C@@H](O)[C@@H]2O)cc1` (some centres unmarked) [compound 2]: the Kd runs as follows: under setting [1], 460 ± 40 µM; under setting [2], 500 ± 200 µM.
